Measurements from BindingDB's records for patent US12091399 (Boehringer Ingelheim International, 2024).

Target: Plasma kallikrein (Homo sapiens, UniProt P03952)
Assay: Evaluation of the Inhibition of PKK Using an Endpoint Assay
Experimental: Subsequently, PPACK II (Calbiochem) was added as a stop solution to achieve a final concentration of 1 μM and fluorescence was measured using an Envision Reader (PerkinElmer) with the wavelength excitation setting of 355 nm and the wavelength emission setting of 460 nm.

Sequence of Plasma kallikrein (P03952 20-390 limits assumed): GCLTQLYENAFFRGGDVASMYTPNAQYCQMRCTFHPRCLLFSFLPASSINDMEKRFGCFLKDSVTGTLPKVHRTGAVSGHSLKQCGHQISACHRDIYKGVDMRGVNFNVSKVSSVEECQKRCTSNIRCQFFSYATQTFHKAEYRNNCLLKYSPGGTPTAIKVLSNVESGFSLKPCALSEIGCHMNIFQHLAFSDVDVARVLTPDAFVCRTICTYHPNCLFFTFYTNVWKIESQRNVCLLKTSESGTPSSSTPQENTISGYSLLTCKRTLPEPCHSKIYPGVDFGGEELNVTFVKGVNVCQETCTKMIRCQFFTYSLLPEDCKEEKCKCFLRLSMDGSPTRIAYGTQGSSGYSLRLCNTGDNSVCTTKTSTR
Sequence of Plasma kallikrein (P03952 391-638 limits assumed): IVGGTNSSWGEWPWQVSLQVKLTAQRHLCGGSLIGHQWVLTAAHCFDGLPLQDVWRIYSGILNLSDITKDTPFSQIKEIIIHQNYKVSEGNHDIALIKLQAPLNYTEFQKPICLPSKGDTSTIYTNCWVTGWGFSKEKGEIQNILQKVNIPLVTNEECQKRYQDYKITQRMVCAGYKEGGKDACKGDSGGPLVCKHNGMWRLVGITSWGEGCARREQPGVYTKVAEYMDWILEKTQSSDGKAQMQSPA

Cc1nc(N2C[C@@H]3[C@@H](N)[C@@H]3C2)ccc1Cn1cc(C(=O)NCc2cc(Cl)ccc2-n2cnnn2)cn1 [US12091399, Example 58]
IC50: 0.038 µM
